System: human colon carcinoma cell strain WiDr
Test: Microarray analysis (Human Genome U133 plus 2.0 array) of mRNA expression in WiDr cells treated with compound A
Format: cell-based
Conditions: 14 nM, 6 h, ratio to control
Experimental: Microarray analysis (Human Genome U133 plus 2.0 array: Affymetrix) was carried out using RNA purified from human colon carcinoma cell strain WiDr treated with 2.8 nM and 14 nM of (8E,12E,14E)-7-((4-Cycloheptylpiperazin-1-yl)carbonyl)oxy-3,6,16,21-tetrahydroxy-6,10,12,16,20-pentamethyl-18,19-epoxytricosa-8,12,14-trien-11-olide (hereinafter also referred to as “compound A”) for six hours.
WiDr cells were first suspended in RPMI1640 medium (containing 10% FBS, penicillin, and streptomycin) and seeded in a 10 cm dish (2×10^6 cells/dish). After an overnight culture in an incubator with 5% carbon dioxide gas at 37° C., the medium was changed with medium containing 2.8 nM and 14 nM of compound A or containing vehicle alone. After cultured additional six hours, TRI reagent (SIGMA) was added to cells, and the cells were harvested. RNA was purified in accordance with the protocol of TRI reagent, followed by further purification with RNeasy (QIAGEN). Absorbance at 260 nm was measured to quantify an amount of RNA.
Subsequently, single stranded cDNA synthesis, double stranded cDNA synthesis, biotin-labeled cRNA synthesis, and cRNA fragmentation in order were carried out from 5-10 μg (WiDr 10 μg, PBMC 5 μg) of total RNA from the control cells and the treated cells, by using One-Cycle Target Labeling and Control Reagents (Affymetrix). cRNA probe was used for hybridization with Human Genome U133 Plus 2.0 Array (Affymetrix). The array was then washed and stained, and luminescence intensity was measured by a scanner.
The RMA method was applied to 33 of .cel files obtained in the microarray experiment and log signal intensity at a gene level normalized with log signal intensity at a probe level was obtained. By subtracting the mean between control 1 and control 3 from the mean between log signal intensity 1 and log signal intensity 3 for each case, the log signal intensity was converted into a log signal ratio to the control. A t-test was conducted between each log signal intensity and control, and candidate genes were narrowed down in the basis of a p-value, a log signal ratio, and a signal value. Specifically, genes showing that the P value was 5% or less; the expression level in the untreated (control) is 100 or more by signal value; and the expression level when treated with both 2.8 nM and 14 nM of compound A is, compared to the control, 25% or less, were picked out. The software used is R2.2.1 (http://www.r-project.org/), affy package 1.8.1 (http://www.bioconductor.org).
Genes showing that, by the treatment with compound A, the P value was 5% or less; the expression level in the untreated (control) is 100 or more by signal value; and the expression level when treated with both 2.8 nM and 14 nM of compound A is, compared to the control, 25% or less, and results thereof were shown in Table 1. Probe ID used in Table 1 represents Human Genome U133 Plus 2.0 Array Probeset ID. In Table 1, for each gene evaluated, gene name (Gene Name), abbreviated name (Gene Symbol), accession number (Accession), alias name (Synonym), Probe set number in Human Genome U133 Plus 2.0 Array (Human Genome U133 Plus 2.0 Array Probeset ID), the expression level upon the six-hour treatment with 2.8 nM of E7107 (2.8 nM (6 h)), and the expression level upon the six-hour treatment with 14 nM of E7107 (14 nM (6 h)) were respectively shown.

## CCC(O)C(C)C1OC1CC(C)(O)/C=C/C=C(\C)C1OC(=O)CC(O)CCC(C)(O)C(OC(=O)N2CCN(C3CCCCCC3)CC2)/C=C/C1C (stereo not drawn) [E7107, (8E,12E,14E)-7-((4-Cycloheptylpiperazin-1-yl)carbonyl)oxy-3,6,16,21-tetrahydroxy-6,10,12,16,20-pentamethyl-18,19-epoxytricosa-8,12,14-trien-11-olide]
  ADPRHL2 mRNA expression level (223097_at): 0.20
  ANGEL2 mRNA expression level (221825_at): 0.17
  ARMC8 mRNA expression level (203486_s_at): 0.12
  ATP2A2 mRNA expression level (212361_s_at): 0.17
  ATP2B1 mRNA expression level (212930_at): 0.10
  ATP6V0A2 mRNA expression level (205704_s_at): 0.15
  BPTF mRNA expression level (232909_s_at): 0.05
  C1orf63 mRNA expression level (209006_s_at): 0.19
  C1orf79 mRNA expression level (223774_at): 0.14
  C1orf82 mRNA expression level (222893_s_at): 0.19
  C5orf28 mRNA expression level (219029_at): 0.05
  C6orf136 mRNA expression level (227455_at): 0.15
  C7orf23 mRNA expression level (204215_at): 0.04
  C7orf36 mRNA expression level (223433_at): 0.15
  C7orf49 mRNA expression level (220949_s_at): 0.23
  C12orf32 mRNA expression level (225837_at): 0.17
  C15orf40 mRNA expression level (1552310_at): 0.19
  C17orf80 mRNA expression level (223351_at): 0.21
  C20orf112 mRNA expression level (225224_at): 0.09
  CARD10 mRNA expression level (210026_s_at): 0.13
  CASC5 mRNA expression level (228323_at): 0.14
  CCDC14 mRNA expression level (225017_at): 0.17
  CCNE2 mRNA expression level (205034_at): 0.05
  CDC6 mRNA expression level (203967_at): 0.08
  CDC7 mRNA expression level (204510_at): 0.13
  CDNA FLJ34214 fis, clone FCBBF3021807 mRNA expression level (227087_at): 0.17
  CLDND1 mRNA expression level (208925_at): 0.09
  CLIP1 mRNA expression level (201975_at): 0.12
  DAPK1 mRNA expression level (203139_at): 0.07
  DNAJC16 mRNA expression level (212908_at): 0.15
  E2F7 mRNA expression level (228033_at): 0.06
  EHBP1 mRNA expression level (212653_s_at): 0.05
  ELL3 mRNA expression level (219518_s_at): 0.20
  ERCC3 mRNA expression level (202176_at): 0.22
  EVI1 mRNA expression level (226420_at): 0.07
  FAM86C mRNA expression level (65585_at): 0.22
  FANCL mRNA expression level (218397_at): 0.21
  FBXL5 mRNA expression level (209004_s_at): 0.05
  FCHO2 mRNA expression level (228220_at): 0.11
  FGF19 mRNA expression level (223761_at): 0.18
  FKSG44 mRNA expression level (227964_at): 0.06
  FLJ20628 mRNA expression level (221229_s_at): 0.25
  FRY mRNA expression level (204072_s_at): 0.10
  Full-length cDNA clone CS0DL007YI24 of B cells (Ramos cell line) mRNA expression level (226648_at): 0.12
  GRHL1 mRNA expression level (222830_at): 0.18
  HDAC4 mRNA expression level (204225_at): 0.21
  INTS7 mRNA expression level (222250_s_at): 0.20
  IREB2 mRNA expression level (225892_at): 0.03
  IXL mRNA expression level (225708_at): 0.14
  JAGN1 mRNA expression level (223104_at): 0.09
  JUB mRNA expression level (225806_at): 0.09
  KCNE3 mRNA expression level (227647_at): 0.16
  KIAA0323 mRNA expression level (212355_at): 0.19
  KIAA0776 mRNA expression level (212633_at): 0.15
  KIAA0859 mRNA expression level (212405_s_at): 0.09
  KIF2C mRNA expression level (211519_s_at): 0.12
  KIF21A mRNA expression level (226003_at): 0.09
  KIN mRNA expression level (205664_at): 0.19
  KLHL12 mRNA expression level (225068_at): 0.11
  LIPG mRNA expression level (219181_at): 0.11
  LOC51315 mRNA expression level (218303_x_at): 0.07
  LOC124512 mRNA expression level (225808_at): 0.16
  MASTL mRNA expression level (228468_at): 0.11
  MCM10 mRNA expression level (220651_s_at): 0.06
  METTL3 mRNA expression level (209265_s_at): 0.19
  METTL4 mRNA expression level (219698_s_at): 0.18
  MKRN1 mRNA expression level (201285_at): 0.22
  MLL2 mRNA expression level (227527_at): 0.10
  MND1 mRNA expression level (223700_at): 0.14
  MYOHD1 mRNA expression level (225947_at): 0.24
  NCOA5 mRNA expression level (225145_at): 0.17
  NIN mRNA expression level (225921_at): 0.21
  NOC3L mRNA expression level (218889_at): 0.15
  NPC1 mRNA expression level (202679_at): 0.20
  NR2C1 mRNA expression level (204791_at): 0.13
  NUPL1 mRNA expression level (223984_s_at): 0.12
  NUPL2 mRNA expression level (204003_s_at): 0.21
  ORC5L mRNA expression level (204957_at): 0.12
  PAXIP1 mRNA expression level (212825_at): 0.08
  PCGF1 mRNA expression level (210023_s_at): 0.18
  PHACTR4 mRNA expression level (226823_at): 0.15
  PHF20L1 mRNA expression level (226942_at): 0.10
  PIK3C3 mRNA expression level (204297_at): 0.22
  PLEKHA5 mRNA expression level (220952_s_at): 0.06
  PMS1 mRNA expression level (213677_s_at): 0.17
  POLD3 mRNA expression level (212836_at): 0.09
  POLR3E mRNA expression level (222490_at): 0.10
  PPM1B mRNA expression level (209296_at): 0.07
  PPWD1 mRNA expression level (213483_at): 0.14
  RAD54B mRNA expression level (219494_at): 0.10
  RBBP6 mRNA expression level (212783_at): 0.12
  RBM17 mRNA expression level (224780_at): 0.13
  RBMS1 mRNA expression level (209868_s_at): 0.11
  REPS1 mRNA expression level (224366_s_at): 0.12
  RFC4 mRNA expression level (204023_at): 0.04
  RIF1 mRNA expression level (226821_at): 0.07
  RPS6KC1 mRNA expression level (218909_at): 0.22
  SFXN1 mRNA expression level (230069_at): 0.06
  SHPRH mRNA expression level (226366_at): 0.08
  SLC17A5 mRNA expression level (223441_at): 0.18
  SLC25A19 mRNA expression level (223222_at): 0.22
  SLC37A1 mRNA expression level (218928_s_at): 0.25
  SMEK2 mRNA expression level (226230_at): 0.14
  SMUG1 mRNA expression level (218685_s_at): 0.24
  STAMBPL1 mRNA expression level (227606_s_at): 0.14
  STXBP3 mRNA expression level (203310_at): 0.14
  SYTL2 mRNA expression level (232914_s_at): 0.24
  TAF4 mRNA expression level (213090_s_at): 0.09
  TMEM177 mRNA expression level (218897_at): 0.22
  TNS3 mRNA expression level (217853_at): 0.07
  TRIM31 mRNA expression level (210159_s_at): 0.21
  TRIP4 mRNA expression level (203732_at): 0.23
  TSEN2 mRNA expression level (219581_at): 0.11
  TTC4 mRNA expression level (46167_at): 0.09
  TUBGCP3 mRNA expression level (203690_at): 0.11
  Transcribed locus mRNA expression level (230098_at): 0.13
  Transcribed locus mRNA expression level (230177_at): 0.22
  Transcribed locus mRNA expression level (235609_at): 0.17
  Transcribed locus, moderately similar to XP_518244.1 mRNA expression level (235046_at): 0.10
  Transcribed locus, strongly similar to NP_002194.1 integrin alpha 2 precursor mRNA expression level (227314_at): 0.12
  Transcribed locus, strongly similar to NP_689873.1 mRNA expression level (228638_at): 0.12
  UNC50 mRNA expression level (203583_at): 0.06
  WBP4 mRNA expression level (203598_s_at): 0.17
  WDR26 mRNA expression level (218107_at): 0.16
  WDR67 mRNA expression level (214061_at): 0.08
  ZC3HAV1L mRNA expression level (228280_at): 0.04
  ZCCHC6 mRNA expression level (220933_s_at): 0.25
  ZKSCAN1 mRNA expression level (214670_at): 0.15
  ZMIZ1 mRNA expression level (212124_at): 0.05
  ZNF518 mRNA expression level (204291_at): 0.12
  mRNA expression level, probeset 228106_at (gene name not given): 0.18
  mRNA expression level, probeset 235436_at (gene name not given): 0.19

Source: patent publication US20100086931A1, “METHOD FOR ASSAYING ACTION OF ANTITUMOR AGENT USING DECREASE IN GENE EXPRESSION LEVEL AS INDEX” (Eisai R&D Management Co., Ltd., priority 2007, published 2010)
